“Also recorded” adds a separate entry of the source.
Columns and labels:
MAO A = target: T1, MAO A (Homo sapiens, UniProt P21397); assay: Autoradiography with [18F]compound 13 on human brain sections, blocking with MAO A inhibitor clorgyline; type: binding; details: human AD brain slices; excess (10 μM) of Clorgyline
T1 construct: Autoradiography using [^18F]compound 13 on human brain slices from four brains from patients with diagnosis of Alzheimer's disease; from tissue; host or cells: human brain sections (Alzheimer's disease patients), 18 µm cryosections
T1 sequence (P21397 1-527): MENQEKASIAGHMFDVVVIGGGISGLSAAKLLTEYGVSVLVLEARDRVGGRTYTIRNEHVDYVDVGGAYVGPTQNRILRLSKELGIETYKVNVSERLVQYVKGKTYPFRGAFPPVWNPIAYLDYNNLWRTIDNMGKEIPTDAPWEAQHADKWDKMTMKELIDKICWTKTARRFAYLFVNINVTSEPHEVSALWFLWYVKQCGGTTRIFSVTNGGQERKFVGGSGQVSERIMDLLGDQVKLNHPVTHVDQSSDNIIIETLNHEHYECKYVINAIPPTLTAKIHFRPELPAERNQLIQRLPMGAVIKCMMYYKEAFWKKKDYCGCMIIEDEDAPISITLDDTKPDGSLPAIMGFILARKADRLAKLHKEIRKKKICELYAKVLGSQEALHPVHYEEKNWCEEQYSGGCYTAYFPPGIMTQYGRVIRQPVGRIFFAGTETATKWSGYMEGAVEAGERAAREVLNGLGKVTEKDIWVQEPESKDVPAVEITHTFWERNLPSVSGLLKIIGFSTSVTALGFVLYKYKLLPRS
Experimental: (§1) Thereafter, the slides were removed and brought to room temperature. […] The sections were dipped two times into ice cold distilled water, dried at room temperature and exposed to PhosphorImanger plates (FUJI BAS 5000) over night. For detection of the specificity of the signals an excess (10 μM) of Deprenyl, Pargylin (both for MAO B) and Clorgyline (for MAO A), respectively, was used. After exposure, the sections were immunohistochemically stained using a standard protocol with an anti-GFAP antibody to detect reactive astrocytes. Amyloid β plaques were detected with BAY 949172 (Rowe C C et al. Lancet Neutol 2008; 7: 129-135) using the binding protocol as described above.
FIG. 2A Autoradiographic signal after exposure on the PhosphorImager plate. Note the black dots in the tissue slices corresponding to areas with amyloid β plaques (see examples in FIG. 3).

MAO B = target: T2, MAO B (Homo sapiens, UniProt P27338); assay: Autoradiography with [18F]compound 13 on human brain sections (Alzheimer's disease), blocking with MAO B inhibitors; type: binding
T2 construct: Autoradiography using [^18F]compound 13 on human brain slices from four brains from patients with diagnosis of Alzheimer's disease; from tissue; host or cells: human brain sections (Alzheimer's disease patients and normal controls), 18 µm cryosections
T2 sequence (P27338 1-520): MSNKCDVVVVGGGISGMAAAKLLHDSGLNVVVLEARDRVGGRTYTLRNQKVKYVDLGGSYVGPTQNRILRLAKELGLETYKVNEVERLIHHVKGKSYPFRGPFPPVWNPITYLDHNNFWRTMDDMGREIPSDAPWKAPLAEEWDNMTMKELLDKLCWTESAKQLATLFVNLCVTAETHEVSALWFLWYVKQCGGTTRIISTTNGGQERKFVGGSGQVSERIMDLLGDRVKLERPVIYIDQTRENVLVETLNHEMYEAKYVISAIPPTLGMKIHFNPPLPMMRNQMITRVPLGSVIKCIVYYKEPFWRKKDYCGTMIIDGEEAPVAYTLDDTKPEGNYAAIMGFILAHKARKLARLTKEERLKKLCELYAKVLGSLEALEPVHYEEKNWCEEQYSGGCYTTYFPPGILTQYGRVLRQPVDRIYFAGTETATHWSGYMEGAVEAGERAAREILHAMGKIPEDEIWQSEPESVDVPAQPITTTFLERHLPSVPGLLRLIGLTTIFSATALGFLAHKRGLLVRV
Experimental: as §1
FIG. 1A Autoradiographic signal after exposure on the PhosphorImager plate.
FIG. 2A Autoradiographic signal after exposure on the PhosphorImager plate.

[1] = PET brain uptake (time activity curves, SUV) in a cynomolgus monkey; type: in vivo; details: e.g. striatum
[2] = Plasma radioactivity and plasma metabolites after injection in a cynomolgus monkey; details: compared with [11C]Deprenyl (and compound 5)
Source text: Plasma radioactivity profiles have been monitored over time. […] In addition, metabolites occurring in plasma over time have been monitored (FIGS. 8 and 9) for both ligands.

[3] = Biodistribution in NMRI mice (gamma counter); type: in vivo
Experimental: For each time point 3 mice have been used. The mice were injected each with 0.178 MBq[^18F]compound 13. After the respective time points the mice were sacrificed, the organs taken out and measured in a gamma counter. The results were decay corrected.

[4] = literature report; cited from earlier work

SMILES	blocking of autoradiographic signal by MAO A inhibitor clorgyline (MAO A)	correspondence of autoradiographic signal to reactive astrocytes (MAO B; human AD brain slice, GFAP immunoreactivity)	relation of autoradiographic signal to amyloid β plaque load (MAO B; human AD brain slices, amyloid detected with BAY 949172)	blocking of autoradiographic signal by MAO B inhibitors (specificity for MAO B) (MAO B; human AD brain slices, excess (10 μM) of Deprenyl or Pargylin)	uptake and enrichment in specific regions, higher than [11C]Deprenyl [1]	in vivo metabolic stability [2]	brain uptake of radioactivity ([3]; 2 min p.i.)	brain radioactivity ([3]; 30 min p.i.)	brain radioactivity ([3]; after 4 hours)	degradation to metabolite (reported) [4]
C#CCN(C)[C@H](C[18F])Cc1ccccc1 [[^18F]compound 13, N-[(2S)-1-(^18F)fluoro-3-phenylpropan-2-yl]-N-methylprop-2-yn-1-amine]	not with clorgyline	correspondence of the autoradiographic signal to reactive astrocytes is demonstrated	the signal density and intensity corresponds with the amyloid β plaque load	the signals could be blocked with deprenyl and pargylin; also recorded: the signals could be completely blocked with deprenyl	about 10%	improved metabolic stability; also recorded: more stable than [^11C]Deprenyl	7.5±0.04 % ID/g	2.10±0.33 % ID/g	1.34±0.26 % ID/g	
C#CCN(C)CCCCCC[18F] [compound 5]										degraded quickly towards a polar [^18F]-labelled metabolite

— US10266506B2, “Compounds for use in imaging, diagnosing and/or treatment of diseases of the central nervous system or of tumors” (PIRAMAL IMAGING SA, priority 2007, dated 2019)
